Results taken from patent publication US10703764B2, “Benzopiperazine compositions as BET bromodomain inhibitors” (FORMA Therapeutics, Inc., priority 2013, dated 2020).

What was measured:
BRD4 BD2 = target: T1, BRD4 BD2 (Homo sapiens, UniProt O60885); assay: AlphaScreen binding assay, BRD4 Bromodomain 2
T1 construct: made in house
Procedure, shortened: (§1)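 Compound dilution series were mixed with His-tagged BRD4 bromodomain and biotinylated tetra-acetylated H4 (1-21) peptide at pH 7.3 (BD1 and peptide at 50 nM, BD2 and peptide at 100 nM). Donor and acceptor beads were then added, and plates were equilibrated at least 1 h before reading. IC50 values were fitted with a four-parameter logistic model.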

MV4-11 cells = assay: Oncology cell growth assay (3-day proliferation, CellTiter-Glo); format: cell-based; settings: Homo sapiens, MV4-11, 72 h, AML cell line MV4-11, 72 hours, compounds grouped by IC50 range, read-out: MV4-11 IC50 (inhibition of proliferation, gIC50)
Procedure, shortened: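 A 3-day proliferation test used MV4-11 cells seeded at 3000 per well with eight compound concentrations (10 μM top, 3-fold dilution) at 37° C in 5% CO2. CellTiter-Glo luminescence defined viable cell signal. A four-parameter logistic curve against DMSO and background wells gave the gIC50.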

BRD4 BD1 = target: T2, BRD4 BD1 (Homo sapiens, UniProt O60885); assay: AlphaScreen binding assay, BRD4 Bromodomain 1
T2 construct: made in house
Procedure, shortened: as §1

Row | SMILES | IC50 (BRD4 BD2) [nM] | IC50 (MV4-11 cells) [nM] | IC50 (BRD4 BD1) [nM]
1 | CC(=O)N1c2ccc(-c3ccc(S(=O)(=O)n4cccn4)cc3)cc2N(C(=O)C2CCC2)C[C@@H]1C [Example I-1116] | 50 to 500 | > 500 | 1000 to 10000
2 | COc1ccc(-c2ccc3c(c2)N(C(=O)c2ccco2)C[C@H](C)N3C(C)=O)cc1 [Example I-807] | < 50 | 100 to 500 | 100 to 1000
3 | CC(=O)N1c2ccc(-c3ccc(C(=O)N4CC[C@@H](N(C)C)C4)cc3)cc2N(C(=O)OC(C)C)C[C@@H]1C [Example I-542] | < 50 | < 100 | < 100
4 | CCS(=O)(=O)Nc1ccc(-c2ccc3c(c2)N(C(=O)OC(C)C)C[C@H](C)N3C(C)=O)cc1 [Example I-1138] | 50 to 500 | 100 to 500 | 100 to 1000
5 | CC(=O)N1c2ccc(-c3ccc(S(=O)(=O)NC(C)(C)C)cc3)cc2N(C(=O)OC(C)C)C[C@@H]1C [Example I-1130] | 50 to 500 | 100 to 500 | 100 to 1000
6 | CCS(=O)(=O)Nc1cccc(-c2ccc3c(c2)N(C(=O)OC2CCCCC2)C[C@H](C)N3C(C)=O)c1 [Example I-1227] | 50 to 500 | 100 to 500 | 100 to 1000
7 | CC(=O)N1c2ccc(-c3cnn(Cc4ccno4)c3)cc2N(C(=O)OC(C)C)C[C@@H]1C [Example I-131, (S)-isopropyl 4-acetyl-7-(1-(isoxazol-5-ylmethyl)-1H-pyrazol-4-yl)-3-methyl-3,4-dihydroquinoxaline-1(2H)-carboxylate] | 50 to 500 | 100 to 500 | 100 to 1000
8 | CC(=O)N1c2ccc(-c3cnn(Cc4ccnn4C)c3)cc2N(C(=O)OC(C)C)C[C@@H]1C [Example I-680] | 50 to 500 | 100 to 500 | 100 to 1000
9 | CC(=O)N1c2ccc(-c3cn(C)nc3C)cc2N(C(=O)OC(C)C)C[C@@H]1C [Example I-338] | 50 to 500 | > 500 | 100 to 1000
10 | CNC(=O)CN(C)C(=O)c1ccc(-c2ccc3c(c2)N(C(=O)OC(C)C)C[C@H](C)N3C(=O)OC)cc1 [Example I-563] | 50 to 500 | 100 to 500 | 100 to 1000
11 | CC(=O)N1c2ccc(-c3cnn(C4CC4)c3)cc2N(C(=O)OC2CC(F)(F)C2)C[C@@H]1C [Example I-26, (S)-3,3-difluorocyclobutyl 4-acetyl-7-(1-cyclopropyl-1H-pyrazol-4-yl)-3-methyl-3,4-dihydroquinoxaline-1(2H)-carboxylate] | 50 to 500 | 100 to 500 | 100 to 1000
12 | CC(=O)N1c2ccc(-c3ccc4cnn(C)c4c3)cc2N(C(=O)c2ccco2)C[C@@H]1C [Example I-843] | < 50 | 100 to 500 | 100 to 1000
13 | CCN(CC)S(=O)(=O)c1cc(-c2ccc3c(c2)N(C(=O)C2CC2)C[C@H](C)N3C(C)=O)ccc1OC [Example I-1112] | 50 to 500 | 100 to 500 | 1000 to 10000
14 | CC(=O)N1c2ccc(-c3cnn(CC4CC4)c3)cc2N(C(=O)OC(C)C)C[C@@H]1C [Example I-308] | 50 to 500 | 100 to 500 | 100 to 1000
15 | CC(=O)N1c2ccc(-c3cnn(C4CC4)c3)cc2N(c2nn(C)c3cccc(F)c23)C[C@@H]1C [Example I-183, 1-[(2S)-6-(1-cyclopropyl-1H-pyrazol-4-yl)-4-(4-fluoro-1-methyl-1H-indazol-3-yl)-2-methyl-1,2,3,4-tetrahydroquinoxalin-1-yl]ethan-1-one] | < 50 | 100 to 500 | 100 to 1000
16 | COc1cc2c(cc1-c1ccc(S(C)(=O)=O)cc1)N(C(=O)OC(C)C)C[C@H](C)N2C(C)=O [Example I-199, Isopropyl (S)-4-acetyl-6-methoxy-3-methyl-7-(4-(methylsulfonyl)phenyl)-3,4-dihydroquinoxaline-1(2H)-carboxylate] | > 500 | > 500 | 1000 to 10000
17 | CNC(=O)c1cccc(-c2ccc3c(c2)N(C(=O)c2ccco2)CCN3C(C)=O)c1 [Example I-868] | > 500 | > 500 | > 10000
18 | CC(=O)N1c2ccc(-c3cnn(C4CCOCC4)c3)cc2N(C(=O)OC2CCC2)C[C@@H]1C [Example I-39, (S)-cyclobutyl 4-acetyl-3-methyl-7-(1-(tetrahydro-2H-pyran-4-yl)-1H-pyrazol-4-yl)-3,4-dihydroquinoxaline-1(2H)-carboxylate] | < 50 | < 100 | 100 to 1000
19 | COC(=O)N1c2ccc(-c3cnn(CC(C)(C)O)c3)cc2N(C(=O)OC(C)C)C[C@@H]1C [Example I-329] | 50 to 500 | 100 to 500 | 100 to 1000
20 | CC(=O)N1c2ccc(-c3ccc(S(C)(=O)=O)cc3)cc2N(C(=O)Oc2cccc(C(F)(F)F)c2)C[C@@H]1C [Example I-237] | < 50 | 100 to 500 | 1000 to 10000
